Test results published in patent US7495027B2, “3-aryl-4-hydroxyfuranone compounds and the human and animal health use thereof” (Wyeth, priority 2003, dated 2009).

Legend:
[1] = system: larvae of blowfly, Lucilia sericata; assay: whole plant or invertebrate; conditions: dose rate of 20 ppm, Lucilia sericata larvae on treated filter paper with bovine serum; for % Mortality 24 h: assessed at 24 h; for % Mortality 48 h: assessed at 48 h
Experimental: Comparative Evaluation of the Efficacy of a 3-Aryl-4-hydroxyfuranone Compound Against Blowfly Larvae
In this evaluation, filter paper discs are treated with an acetone solution of test compound and allowed to dry. Bovine serum and newly emerged larvae of blowfly, Lucilia sericata, are added to the treated filter paper. Mortality is assessed at 24 h and 48 h. When more than one evaluation is performed, the data are averaged.

C. elegans = assay: Efficacy against nematodes (C. elegans motility rating); parameters: key: 0: no effect; 7: reduced movement in 24 h; 8: dead in 24 h; 9: dead in 4 h; conditions: observations at 4 h and 24 h postimmersion
Experimental: Evaluation of the Efficacy of a 3-Aryl-4-Hydroxyfuranone Against Nematodes
In this evaluation, cultures of C. elegans are maintained on E. coli lawns on Nematode Growth Agar at 20° C. New cultures are established twice a week. Nematodes for testing are rinsed from plates using M9 Buffer. […] One μL of this solution is added to each well of a 96 well plate. A mixture of C. elegans in M9 Buffer (100 μL) is added to each well, such that approximately 50 worms of mixed stages (L1, L2, L3, L4 and adults) are present in each well at a final concentration of 100 ppm, 150 ppm or […] of test compound. Concentration of test compound may be varied by gradient dilution of the stock DMSO solution. Observations are made under a dissecting microscope at 4 h and 24 h postimmersion. A rating is based on the motility of the larvae and adults, using the rating system shown below.

| Compound | % Mortality 24 h [1] [%] | % Mortality 48 h [1] [%] | Rating (C. elegans; dose 150 ppm) | also measured |
| --- | --- | --- | --- | --- |
| O=C1OC(=Cc2ccc(-c3ccccc3CO)cc2)C(O)=C1c1ccccc1CO | 0 | 0 |  |  |
| O=C1O/C(=C\c2ccc(-c3cccc(CO)c3)cc2)C(O)=C1c1cccc(CO)c1 | 0 | 0 |  |  |
| CC(=O)Nc1cccc(C2=C(O)/C(=C/c3ccc(-c4cccc(NC(C)=O)c4)cc3)OC2=O)c1 | 0 | 0 |  |  |
| O=C1O/C(=C\c2ccc(N3CCN(c4ccccc4Cl)CC3)c(Cl)c2)C(O)=C1c1cc(Cl)cc(Cl)c1 | 0 | 0 |  |  |
| CCOC(=O)N1CCN(c2ccc(/C=C3\OC(=O)C(c4cc(Cl)cc(Cl)c4)=C3O)cc2F)CC1 | 0 | 0 |  |  |
| COc1cc(C=C2OC(=O)C(c3cc(Cl)cc(Cl)c3)=C2O)ccc1-c1cccc(C(F)(F)F)c1 | 0 | 0 |  |  |
| N#Cc1ccc(C2=C(O)/C(=C/c3ccc(-c4ccc(C#N)cc4)cc3)OC2=O)cc1 | 0 | 0 |  |  |
| CC(C)(C)c1ccc(-c2ccc(C3=C(O)C(=Cc4ccc(-c5ccccc5)cc4)OC3=O)cc2)cc1 | 0 | 0 |  |  |
| C=CCOC1=C(c2ccc(Cl)cc2)C(=O)OC1=Cc1ccc(C#N)cc1 (mixture of isomers) | 0 | 0 |  |  |
| N#Cc1ccc(-c2ccc(C=C3OC(=O)C(c4ccc(C(F)(F)F)cc4)=C3O)cc2)cc1 (mixture of isomers) | 0 | 0 |  |  |
| O=C1OC(=Cc2ccc(-c3ccc(Cl)cc3)cc2)C(O)=C1c1ccc(C(F)(F)F)cc1 (mixture of isomers) | 0 | 65 |  |  |
| N#Cc1ccc(C2=C(O)C(=Cc3ccc(-c4ccc(Cl)cc4)cc3)OC2=O)cc1 (mixture of isomers) | 0 | 100 |  |  |
| O=C1O/C(=C\c2cccc(C(F)(F)F)c2)C(O)=C1c1ccc(Cl)cc1 [R=H; R1=4-Cl—C6H4; R2=3-CF3—C6H4] |  |  | 9 |  |
| O=C1OC(=Cc2ccccc2C(F)(F)F)C(O)=C1c1ccc(F)cc1 [R=H; R1=4-F—C6H4; R2=2-CF3—C6H4] |  |  | 0 |  |
| COc1ccc(C2=C(O)/C(=C/c3ccc4ccccc4c3)OC2=O)cc1 [R=H; R1=4-OCH3—C6H4; R2=2-naphthyl] |  |  | 0 |  |
| COc1ccc(C2=C(O)/C(=C/c3ccc(Cl)cc3)OC2=O)cc1 [R=H; R1=4-OCH3—C6H4; R2=4-Cl—C6H4] |  |  | 0 |  |
| COc1ccc(/C=C2\OC(=O)C(c3ccc(OC)cc3)=C2O)cc1 [R=H; R1=4-OCH3—C6H4; R2=4-OCH3—C6H4] |  |  | 0 |  |
| O=C1OC(=Cc2cc(C(F)(F)F)ccc2Cl)C(O)=C1c1ccc(-c2ccccc2)cc1 [R=H; R1=4-biphenyl; R2=2-Cl-5-CF3—C6H3] |  |  |  | Rating (C. elegans; dose 200 μM): 9 |
| O=C1O/C(=C\c2ccc3ccccc3c2)C(O)=C1c1ccc(-c2ccccc2)cc1 [R=H; R1=4-biphenyl; R2=2-naphthyl] |  |  | 0 |  |
| O=C1OC(=Cc2cccc(C(F)(F)F)c2)C(O)=C1c1ccc(-c2ccccc2)cc1 [R=H; R1=4-biphenyl; R2=3-CF3—C6H4] |  |  |  | Rating (C. elegans; dose 200 μM): 9 |
| O=C1OC(=Cc2cc(F)cc(C(F)(F)F)c2)C(O)=C1c1ccc(-c2ccccc2)cc1 [R=H; R1=4-biphenyl; R2=3-F-5-CF3—C6H3] |  |  |  | Rating (C. elegans; dose 200 μM): 9 |
| O=C1O/C(=C\c2ccc(-c3ccccc3)cc2)C(O)=C1c1ccc(-c2ccccc2)cc1 [R=H; R1=4-biphenyl; R2=4-biphenyl] |  |  | 9 |  |
| O=C1O/C(=C\c2cccc(C(F)(F)F)c2)C(O)=C1c1ccccc1 [R=H; R1=C6H5; R2=3-CF3—C6H4] |  |  | 0 |  |
| O=C1OC(=Cc2ccc(C(F)(F)F)cc2)C(O)=C1c1cccs1 [R=H; R1=thiophen-2-yl; R2=4-CF3—C6H4] |  |  |  | Rating (C. elegans; dose 100 ppm): 7 |
| N#Cc1ccc(C=C2OC(=O)C(c3cccs3)=C2O)cc1 [R=H; R1=thiophen-2-yl; R2=4-CN—C6H4] |  |  |  | Rating (C. elegans; dose 100 ppm): 0 |
| O=C1O/C(=C\c2ccc(Cl)cc2)C(O)=C1c1cccs1 [R=H; R1=thiophen-2-yl; R2=4-Cl—C6H4] |  |  |  | Rating (C. elegans; dose 100 ppm): 7 |
